Measured values as given in US6348587B1, “2′-Fluoronucleosides” (Emory University, priority 1998, dated 2002).
Structures can show the parent of a compound that is named as a salt.

Experiments:
[1] = target: HIV-1 heterodimer p66/51 reverse transcriptase (Human immunodeficiency virus type 1 group M subtype B, UniProt P04585); experiment: HIV-1 reverse transcriptase extension assay, r(I)n.(dC)12-18 template-primer
Protocol: Extension assays were performed using a r(I)n.(dC)12-18 homopolymer template-primer (Pharmacia, Piscataway, N.J.) and the HIV-1 heterodimer p66/51 reverse transcriptase (RT, Biotechnology General, Rehovat, Israel). The standard reaction mixture (100 μl) contained 100 mM Tris hydrochloride (pH 8.0), 50 mM KCl, 2 mM MgCl2, 0.05 units/ml r(I)n.(dC)12-18, 5 mM DTT, 100 μg/ml Bovine Serum Albumin, and 1 μM ^3H-dCTP (23 Ci/mmol). 3TCTP (0.001-50 μM) was the positive control. Compounds were incubated 1 hr at 37° C. in the reaction mixture with 1 unit HIV-1 RT. The reaction was stopped with the addition of an equal volume of cold 10% TCA/0.05% sodium pyrophosphate and incubated 30 minutes at 4° C. The precipitated nucleic acids were harvested onto fiberglass filter paper using a Packard manual harvester (Meriden, Conn.). The radiolabel uptake in counts per minute (cpm) was determined using a Packard 9600 Direct Beta counter.

HIV-1 (strain LAV) = experiment: Anti-HIV-1 activity in PHA-stimulated human PBM cells (virus quantitated by reverse transcriptase assay, day 6); type: cell-based; conditions: HIV-1 in human PBM cells
Protocol: The ability of nucleosides to inhibit HIV can be measured by various experimental techniques. One technique, described in detail below, measures the inhibition of viral replication in phytohemagglutinin (PHA) stimulated human peripheral blood mononuclear (PBM) cells infected with HIV-1 (strain LAV). The amount of virus produced is determined by measuring the virus-coded reverse transcriptase enzyme. The amount of enzyme produced is proportional to the amount of virus produced.
(§1) Antiviral and cytotoxicity assays: Anti-HIV-1 activity of the compounds is determined in human peripheral blood mononuclear (PBM) cells as described previously (Schinazi, R. F.; McMillan, A.; Cannon, D.; Mathis, R.; Lloyd, R. M. Jr.; Peck, A.; Sommadossi, J.-P.; St. Clair, M.; Wilson, J.; Furman, P. A.; Painter, G.; Choi, W.-B.; Liotta, D. C. Antimicrob. Agents Chemother. 1992, 36, 2423; Schinazi, R. F.; Sommadossi, J.-P.; Saalmann, V.; Cannon, D.; Xie, M.-Y.; Hart, G.; Smith, G.; Hahn, E. Antimicrob. Agents Chemother. 1990, 34, 1061). Stock solutions (20-40 mM) of the compounds were prepared in sterile DMSO and then diluted to the desired concentration in complete medium. […] Cells are infected with the prototype HIV-1LAI at a multiplicity of infection of 0.01. Virus obtained from the cell supernatant are quantitated on day 6 after infection by a reverse transcriptase assay using poly(rA)n.oligo(dT)12-18 as template-primer. The DMSO present in the diluted solution (<0.1%) should have no effect on the virus yield. The toxicity of the compounds can be assessed in human PBM, CEM, and Vero cells. The antiviral EC50 and cytotoxicity IC50 is obtained from the concentration-response curve using the median effective method described by Chou and Talalay (Adv. Enzyme Regul. 1984, 22, 27).
Three-day-old phytohemagglutinin-stimulated PBM cells 10^6 cells/ml) from hepatitis B and HIV-1 seronegative healthy donors are infected with HIV-1 (strain LAV) at a concentration of about 100 times the 50% tissue culture infectious dose (TICD 50) per ml and cultured in the presence and absence of various concentrations of antiviral compounds.
Approximately one hour after infection, the medium, with the compound to be tested (2 times the final concentration in medium) or without compound, is added to the flasks (5 ml; final volume 10 ml).
The cells are exposed to the virus (about 2×10^5 dpm/ml, as determined by reverse transcriptase assay) and then placed in a CO2 incubator. HIV-1 (strain LAV) is obtained from the Center for Disease Control, Atlanta, Ga. The methods used for culturing the PBM cells, harvesting the virus and determining the reverse transcriptase activity are those described by McDougal et al. (J. Immun. Meth. 76, 171-183, 1985) and Spiral et al. (J. Clin. Meth. 25, 97-99, 1987), except that flngizone was not included in the medium (see Schinazi, et al., Antimicrob. Agents Chemother. 32, 1784-1787 (1988); Id., 34:1061-1067 (1990)).
On day 6, the cells and supernatant are transferred to a 15 ml tube and centrifuged at about 900 g for 10 minutes. Five ml of supernatant are removed and the virus concentrated by centrifugation at 40,000 rpm for 30 minutes (Beckman 70.1 Ti rotor). The solubilized virus pellet is processed for determination of the levels of reverse transcriptase. Results are expressed in dpm/ml of sampled supernatant. Virus from smaller volumes of supernatant (1 ml) can also be concentrated by centrifugation prior to solubilization and determination of reverse transcriptase levels.

[2] = Cytotoxicity in Vero cells; type: cell-based; conditions: African green monkey, Vero cells
Protocol: as §1, with “[…].;” for “R. F.; McMillan, A.;”, “[…].;” for “A.; Sommadossi, J.-P.;”, “[…].” for “W.-B.; Liotta, D. C.”, “[…].;” for “R. F.; Sommadossi, J.-P.; Saalmann, V.;”, “[…].;” for “M.-Y.; Hart, G.;”

[3] = Cytotoxicity in uninfected human PBM cells; type: cell-based; conditions: human, mitogen-stimulated uninfected human PBM cells; PMC Cells
Protocol: (§2) Antiviral and cytotoxicity assays: Anti-HIV-1 activity of the compounds is determined in human peripheral blood mononuclear (PBM) cells as described previously (Schinazi, […].; Cannon, D.; Mathis, R.; Lloyd, R. M. Jr.; Peck, […].; St. Clair, M.; Wilson, J.; Furman, P. A.; Painter, G.; Choi, […]. Antimicrob. Agents Chemother. 1992, 36, 2423; Schinazi, […].; Cannon, D.; Xie, […].; Smith, G.; Hahn, E. Antimicrob. Agents Chemother. 1990, 34, 1061). Stock solutions (20-40 mM) of the compounds were prepared in sterile DMSO and then diluted to the desired concentration in complete medium. […] Cells are infected with the prototype HIV-1LAI at a multiplicity of infection of 0.01. Virus obtained from the cell supernatant are quantitated on day 6 after infection by a reverse transcriptase assay using poly(rA)n.oligo(dT)12-18 as template-primer. […] The toxicity of the compounds can be assessed in human PBM, CEM, and Vero cells. The antiviral EC50 and cytotoxicity IC50 is obtained from the concentration-response curve using the median effective method described by Chou and Talalay (Adv. Enzyme Regul. 1984, 22, 27). Mitogen stimulated uninfected human PBM cells (3.8×10^5 cells/ml) can be cultured in the presence and absence of drug under similar conditions as those used for the antiviral assay described above. The cells are counted after 6 days using a hemacytometer and the trypan blue exclusion method, as described by Schinazi et al., Antimicrobial Agents and Chemotherapy, 22(3), 499 (1982).

CEM cells = experiment: Cytotoxicity in CEM cells; type: cell-based, human
Protocol: as §1
The extent of anticancer activity can be easily assessed by assaying the compound according to the procedure below in a CEM cell or other tumor cell line assay. CEM cells are human lymphoma cells (a T-lymphoblastoid cell line that can be obtained from ATCC, Rockville, Md.). […] The toxicity is measured as IC50 micromolar). […] Drug solutions, including cycloheximide as a positive control, are plated in triplicate in 50 μl growth medium at 2 times the final concentration and allowed to equilibrate at 37° C. in a 5% CO2 incubator. Log phase cells are added in 50 μl growth medium to a final concentration of 2.5×10^3 (CEM and SK-MEL-28), 5×10^3 (MMAN, MDA-MB-435s, SKMES-1, DU-145, LNCap), or 1×10^4 (PC-3, MCF-7) cells/well and incubated for 3 (DU-145, PC-3, MMAN), 4 (MCF-7, SK-MEL-28, CEM), or 5 (SK-MES-1, MDA-MB-435s, LNCaP) days at 37° C. under a 5% CO2 air atmosphere. Control wells include media alone (blank) and cells plus media without drug. After growth period, 15 μl of Cell Titer 96 kit assay dye solution (Promega, Madison, Wis.) are added to each well and the plates are incubated 8 hr at 37° C. in a 5% CO2 incubator. Promega Cell Titer 96 kit assay stop solution is added to each well and incubated 4-8 hr in the incubator. Absorbance is read at 570 nm, blanking on the medium-only wells using a Biotek Biokinetics plate reader (Biotek, Winooski, Vt.). Average percent inhibition of growth compared to the untreated control is calculated. IC50, IC90, slope and r value are calculated by the method of Chou and Talalay. Chou T-C, Talalay P. Quantitative analysis of dose-effect relationships: The combined effects of multiple drugs or enzyme inhibitors. Adv Enzyme Regul 1984, 22:27-55.

Vero cells = experiment: Cytotoxicity in Vero cells; type: cell-based
Protocol: as §1, with “[…].;” for “R. F.; McMillan, A.;”, “[…].;” for “A.; Sommadossi, J.-P.;”, “[…].” for “W.-B.; Liotta, D. C.”, “[…].;” for “R. F.; Sommadossi, J.-P.; Saalmann, V.;”, “[…].;” for “M.-Y.; Hart, G.;”

PBM cells = experiment: Cytotoxicity in uninfected human PBM cells; type: cell-based
Protocol: as §2

[4] = Human immunodeficiency virus 1, PBMC

| SMILES | EC50 [1] | EC50 (HIV-1 (strain LAV); [4]) | EC90 (HIV-1 (strain LAV); [4]) | IC50 [2] | IC50 at 6 days [3] | IC50 (CEM cells) | EC50 (HIV-1 (strain LAV)) | EC90 (HIV-1 (strain LAV)) | IC50 (Vero cells) | IC50 (PBM cells) |
| --- | --- | --- | --- | --- | --- | --- | --- | --- | --- | --- |
| Nc1nc(=O)n(C2C=CC(COP(=O)(O)OP(=O)(O)OP(=O)(O)O)C2)cc1F (mixture of isomers) [(±)-carbocyclic-D4FC-TP, cis-(±)-Carbocyclic 2′,3′-didehydro-2′,3′-dideoxy-5-fluorocytidine 5′-triphosphate, triethylhydrogenammonium salt] | 0.4 µM | – | – | – | – | – | – | – | – | – |
| Cc1cn([C@H]2C[C@H](N=[N+]=[N-])[C@@H](CO)O2)c(=O)[nH]c1=O [AZT, 3′-azido-3′-deoxythymidine, reference compound] | – | 0.004 µM | 0.04 µM | 29 µM | > 100 µM | – | – | – | – | – |
| O=c1ccn([C@H]2O[C@@H](CO)C=C2F)c(=O)[nH]1 [Compound 316, 1-(2,3-Dideoxy-2-fluoro-(α,β)-L-gycero-pent-2-eno-furanosyl)uracil] | – | – | – | – | – | > 100 µM | > 100 µM | > 100 µM | > 100 µM | > 100 µM |
| Cc1cn([C@H]2O[C@@H](CO)C=C2F)c(=O)[nH]c1=O [Compound 318, 1-(2,3-Dideoxy-2-fluoro-(α,β)-L-gycero-pent-2-eno-furanosyl)thymine] | – | – | – | – | – | > 100 µM | > 100 µM | > 100 µM | > 100 µM | > 100 µM |
| Nc1ccn([C@H]2O[C@@H](CO)C=C2F)c(=O)n1 [Compound 322, 1-(2,3-dideoxy-2-fluoro-β-L-gycero-pent-2-enofuranosyl)cytosine] | – | – | – | – | – | > 100 µM | 0.51 µM | 4.3 µM | > 100 µM | > 100 µM |
| Nc1ccn([C@@H]2O[C@@H](CO)C=C2F)c(=O)n1 [Compound 323, 1-(2,3-dideoxy-2-fluoro-α-L-gycero-pent-2-enofuranosyl)cytosine] | – | – | – | – | – | > 100 µM | > 100 µM | > 100 µM | > 100 µM | > 100 µM |
| Nc1ncnc2c1ncn2[C@H]1O[C@@H](CO)C=C1F [Compound 335, 9-(2,3-dideoxy-2-fluoro-β-L-gycero-pent-2-enofuranosyl)adenine] | – | – | – | – | – | > 100 µM | 1.5 µM | 15.1 µM | > 100 µM | > 100 µM |
| Nc1ncnc2c1ncn2[C@@H]1O[C@@H](CO)C=C1F [Compound 336, 9-(2,3-dideoxy-2-fluoro-α-L-gycero-pent-2-enofuranosyl)adenine] | – | – | – | – | – | > 100 µM | 47.6 µM | 332 µM | > 100 µM | > 100 µM |
| O=c1[nH]cnc2c1ncn2[C@H]1O[C@@H](CO)C=C1F [Compound 337, 9-(2,3-dideoxy-2-fluoro-β-L-gycero-pent-2-enofuranosyl)hypoxanthine] | – | – | – | – | – | > 100 µM | > 100 µM | > 100 µM | > 100 µM | > 100 µM |
| O=c1[nH]cnc2c1ncn2[C@@H]1O[C@@H](CO)C=C1F [Compound 338, 9-(2,3-dideoxy-2-fluoro-α-L-gycero-pent-2-enofuranosyl)hypoxanthine] | – | – | – | – | – | > 100 µM | > 100 µM | > 100 µM | – | > 100 µM |
